Measurements reported in BigSolDB 2.1.

`C=CC1=C(C(=O)O)N2C(=O)[C@@H](NC(=O)/C(=N\OCC(=O)O)c3csc(N)n3)[C@H]2SC1.O.O.O` showed a solubility (mole fraction) (in acetone, 278.15 K) of 0.00223, a solubility (mole fraction) (in acetone, 283.15 K) of 0.00276 and a solubility (mole fraction) (in acetone, 288.15 K) of 0.00308. For the same compound, the solubility (mole fraction) (in acetone, 293.15 K) was 0.00346, the solubility (mole fraction) (in acetone, 298.15 K) was 0.004 and the solubility (mole fraction) (in acetone, 303.15 K) was 0.0044. The solubility (mole fraction) (in acetone, 308.15 K) was 0.00518, the solubility (mole fraction) (in acetone, 313.15 K) was 0.00581 and the solubility (mole fraction) (in acetone, 318.15 K) was 0.00701. The solubility (mole fraction) (in acetone, 323.15 K) was 0.00854, the solubility (mole fraction) (in ethanol, 278.15 K) was 0.00189 and the solubility (mole fraction) (in ethanol, 283.15 K) was 0.0021. For the same compound, the solubility (mole fraction) (in ethanol, 288.15 K) was 0.00246, the solubility (mole fraction) (in ethanol, 293.15 K) was 0.00285 and the solubility (mole fraction) (in ethanol, 298.15 K) was 0.00321. The solubility (mole fraction) (in ethanol, 303.15 K) was 0.0037, the solubility (mole fraction) (in ethanol, 308.15 K) was 0.00415 and the solubility (mole fraction) (in ethanol, 313.15 K) was 0.00478. For the same compound, the solubility (mole fraction) (in ethanol, 318.15 K) was 0.00536, the solubility (mole fraction) (in ethanol, 323.15 K) was 0.00632 and the solubility (mole fraction) (in ethyl acetate, 278.15 K) was 0.000678. For the same compound, the solubility (mole fraction) (in ethyl acetate, 283.15 K) was 0.000747, the solubility (mole fraction) (in ethyl acetate, 288.15 K) was 0.000971 and the solubility (mole fraction) (in ethyl acetate, 293.15 K) was 0.00116. It also gave a solubility (mole fraction) (in ethyl acetate, 298.15 K) of 0.00139, a solubility (mole fraction) (in ethyl acetate, 303.15 K) of 0.00159 and a solubility (mole fraction) (in ethyl acetate, 308.15 K) of 0.00185. The solubility (mole fraction) (in ethyl acetate, 313.15 K) was 0.00226, the solubility (mole fraction) (in ethyl acetate, 318.15 K) was 0.00257 and the solubility (mole fraction) (in ethyl acetate, 323.15 K) was 0.00334. The solubility (mole fraction) (in isopropanol, 278.15 K) was 0.000918, the solubility (mole fraction) (in isopropanol, 283.15 K) was 0.00105 and the solubility (mole fraction) (in isopropanol, 288.15 K) was 0.00128. It also gave a solubility (mole fraction) (in isopropanol, 293.15 K) of 0.00148, a solubility (mole fraction) (in isopropanol, 298.15 K) of 0.00178 and a solubility (mole fraction) (in isopropanol, 303.15 K) of 0.00195. For the same compound, the solubility (mole fraction) (in isopropanol, 308.15 K) was 0.0023, the solubility (mole fraction) (in isopropanol, 313.15 K) was 0.00255 and the solubility (mole fraction) (in isopropanol, 318.15 K) was 0.00291. It also gave a solubility (mole fraction) (in isopropanol, 323.15 K) of 0.0035, a solubility (mole fraction) (in n-butanol, 278.15 K) of 0.000983 and a solubility (mole fraction) (in n-butanol, 283.15 K) of 0.00102. It also gave a solubility (mole fraction) (in n-butanol, 288.15 K) of 0.00122, a solubility (mole fraction) (in n-butanol, 293.15 K) of 0.00151 and a solubility (mole fraction) (in n-butanol, 298.15 K) of 0.00172. The solubility (mole fraction) (in n-butanol, 303.15 K) was 0.002, the solubility (mole fraction) (in n-butanol, 308.15 K) was 0.00249 and the solubility (mole fraction) (in n-butanol, 313.15 K) was 0.00293. The solubility (mole fraction) (in n-butanol, 318.15 K) was 0.00343, the solubility (mole fraction) (in n-butanol, 323.15 K) was 0.00437 and the solubility (mole fraction) (in n-pentanol, 278.15 K) was 0.000403. For the same compound, the solubility (mole fraction) (in n-pentanol, 283.15 K) was 0.00051, the solubility (mole fraction) (in n-pentanol, 288.15 K) was 0.000602 and the solubility (mole fraction) (in n-pentanol, 293.15 K) was 0.000779. The solubility (mole fraction) (in n-pentanol, 298.15 K) was 0.00101, the solubility (mole fraction) (in n-pentanol, 303.15 K) was 0.00136 and the solubility (mole fraction) (in n-pentanol, 308.15 K) was 0.00152. It also gave a solubility (mole fraction) (in n-pentanol, 313.15 K) of 0.00191, a solubility (mole fraction) (in n-pentanol, 318.15 K) of 0.00255 and a solubility (mole fraction) (in n-pentanol, 323.15 K) of 0.003. The solubility (mole fraction) (in sec-butanol, 278.15 K) was 0.000899, the solubility (mole fraction) (in sec-butanol, 283.15 K) was 0.000995 and the solubility (mole fraction) (in sec-butanol, 288.15 K) was 0.00119. The solubility (mole fraction) (in sec-butanol, 293.15 K) was 0.00143, the solubility (mole fraction) (in sec-butanol, 298.15 K) was 0.0015 and the solubility (mole fraction) (in sec-butanol, 303.15 K) was 0.00173. It also gave a solubility (mole fraction) (in sec-butanol, 308.15 K) of 0.00211, a solubility (mole fraction) (in sec-butanol, 313.15 K) of 0.00234 and a solubility (mole fraction) (in sec-butanol, 318.15 K) of 0.00276. The solubility (mole fraction) (in sec-butanol, 323.15 K) was 0.00316.
